Our source for the SI value values is patent US12687780B2, “Curable water-based composition, active-energy-ray-curable water-based composition, active-energy-ray-curable water-based ink, stored container, two-dimensional or three-dimensional image forming apparatus, two-dimensional or three-dimensional image forming method, cured product, and decorated body” (Ricoh Company, Ltd., priority 2021, dated 2026).

The data set can be described thus: Skin sensitivity: stimulation index (SI) value by the LLNA method (OECD test guideline 429). It counts as in vivo. To be noted: stimulation index of the single compound (raw material).
`C=CC(=O)NCC(=O)OC` [Example A1-2, N-acryloylglycine methyl ester]: the SI value entry is listed as “(see Synthesis example 2) SI = 1.01”.
With `C=CC(=O)NCC(=O)OCC` [Example A1-3, N-acryloylglycine ethyl ester], the SI value result is “(see Synthesis example 3) SI = 1.21”.
In the case of `C=CC(=O)NCCCC(=O)OC` [Example A1-5, N-acryloyl-4-butyric acid methyl ester] it was “(see Synthesis example 5) SI = 1.45”.
Consider `C=CC(=O)NC(C)C(=O)OC` (stereo not shown) [Example A1-6, N-acryloyl alaninemethyl ester], for which the SI value entry is recorded as “(see Synthesis example 6) SI = 1.37”.
For the compound `C=CC(=O)N(C)CC(=O)OC` [Example A2-1, N-acryloyl-N-methyl glycine methyl ester], the SI value entry was “(see Synthesis example 7) SI = 1.00”.
Take `C=CC(=O)N1CCC(C(=O)OCC)CC1` [Example A2-5, ethyl N-acryloylpiperidine-4-carboxylate]: the SI value result is “(see Synthesis example 10) SI = 1.70”.
Turning to `C=CC(=O)NCNC(=O)C=C` [Example B1-1], the SI value entry is recorded as “SI = 1.08”.
As to `C=CC(=O)NCCNC(=O)C=C` [Example B1-2], the SI value result is given as “SI = 1.23”.
Turning to `C=CC(=O)NCCN(CCNC(=O)C=C)C(=O)C=C` [Example B1-3], the SI value entry was ““FOM-03007” obtained from FUJIFILM Corporation SI = 1.44”.
In the case of `C=CC(=O)NCCN(CCN(CCNC(=O)CC)C(=O)C=C)C(=O)C=C` [Example B1-4] it was ““FOM-03009” obtained from FUJIFILM Corporation SI = 1.52”.
